Reference: ChEMBL document CHEMBL1138495, “Inhibition of subgenomic hepatitis C virus RNA replication by acridone derivatives: identification of an NS3 helicase inhibitor” (J Med Chem, 2009)
In brackets after ≈: the same amount, converted by molar mass. Activity calls are given as the source filed them. The calls are words filed in the database; no cut-off is given here.

tested on: Hepatitis C virus; assay: Antiviral activity against HCV infected in human HuH5.2 assessed as inhibition of viral RNA synthesis after 4 days by Steady-Glo-luciferase assay; format: functional, organism-based, Hepacivirus hominis; settings: Huh-5-2, 96 h

Row | EC50 [µg/mL] | SMILES
1 | 5 (≈ 16.4 µM) | CCn1c2cc(Cl)c(N)cc2c(=O)c2c(O)cc(O)cc21
2 | 5 (≈ 15 µM) | CCn1c2cc(Cl)c(N)cc2c(=O)c2c(OC)cc(OC)cc21
3 | 4.4 (≈ 10.6 µM) | Cn1c2cc(N3CCN(c4ccccc4)CC3)c(N)cc2c(=O)c2c(O)cc(O)cc21
4 | 8 (≈ 27.5 µM) | COc1cc(O)c2c(=O)c3cc(N)c(Cl)cc3[nH]c2c1

The next lines start with the molecule.

Row | SMILES | EC50 [µg/mL]
5 | COc1cc(O)c2c(=O)c3cc(N)c(N4CCN(c5nc6ccccc6o5)CC4)cc3n(C)c2c1 | 50 (≈ 106 µM)
6 | COc1cc(OC)c2c(=O)c3cc(N)c(N4CCN(c5ccccc5)CC4)cc3n(C)c2c1 | 9 (≈ 20.2 µM)
7 | Cc1cc(C)c2c(=O)c3cc(N)c(N4CCN(c5ccccn5)CC4)cc3n(C)c2c1C | 5 (≈ 11.7 µM)
8 | COc1cc(OC)c2c(=O)c3cc(N(C)C)c(N4CCN(c5ccccn5)CC4)cc3n(C)c2c1 | 1 (≈ 2.11 µM)
9 | COc1ccc(C(=O)c2ccc(N3CCN(c4ccccn4)CC3)c(N)c2)c(OC)c1 | 6.6 (≈ 15.8 µM)
10 | COc1cc(OCC(=O)O)c2c(=O)c3cc(N)c(N4CCN(c5ccccn5)CC4)cc3n(C)c2c1 | 35 (≈ 71.5 µM)
11 | CCn1c2cc(N3CCN(c4ccccn4)CC3)c(N)cc2c(=O)c2c(OC)cc(OC)cc21 | 4 (≈ 8.7 µM)
12 | CCOc1cc(OC)cc2c1c(=O)c1cc(N)c(N3CCN(c4ccccn4)CC3)cc1n2C | 4 (≈ 8.7 µM)

tested on: Hepacivirus hominis; assay: Inhibition of HCV recombinant NS5B RNA polymerase expressed in Escherichia coli up to 100 uM by liquid scintillation counter; settings: not given

Row | Activity | SMILES
13 | inactive | CCn1c2cc(Cl)c(N)cc2c(=O)c2c(O)cc(O)cc21
14 | inactive | CCn1c2cc(Cl)c(N)cc2c(=O)c2c(OC)cc(OC)cc21
15 | inactive | Cn1c2cc(N3CCN(c4ccccc4)CC3)c(N)cc2c(=O)c2c(O)cc(O)cc21
16 | inactive | COc1cc(O)c2c(=O)c3cc(N)c(Cl)cc3[nH]c2c1

Second part, the molecule before the results:

Row | SMILES | Activity
17 | COc1cc(O)c2c(=O)c3cc(N)c(N4CCN(c5nc6ccccc6o5)CC4)cc3n(C)c2c1 | inactive
18 | COc1cc(OC)c2c(=O)c3cc(N)c(N4CCN(c5ccccc5)CC4)cc3n(C)c2c1 | inactive
19 | Cc1cc(C)c2c(=O)c3cc(N)c(N4CCN(c5ccccn5)CC4)cc3n(C)c2c1C | inactive
20 | COc1cc(OC)c2c(=O)c3cc(N(C)C)c(N4CCN(c5ccccn5)CC4)cc3n(C)c2c1 | inactive
21 | COc1ccc(C(=O)c2ccc(N3CCN(c4ccccn4)CC3)c(N)c2)c(OC)c1 | inactive
22 | COc1cc(OCC(=O)O)c2c(=O)c3cc(N)c(N4CCN(c5ccccn5)CC4)cc3n(C)c2c1 | inactive
23 | CCn1c2cc(N3CCN(c4ccccn4)CC3)c(N)cc2c(=O)c2c(OC)cc(OC)cc21 | inactive
24 | CCOc1cc(OC)cc2c1c(=O)c1cc(N)c(N3CCN(c4ccccn4)CC3)cc1n2C | inactive

tested on: not listed separately; assay: Cytostatic activity against human HuH5.2 after 3 days by MTS/PMS assay; format: ADME, Huh-5-2; settings: HuH5.2 cells

Row | SMILES | CC50 at 72 h [µg/mL]
25 | COc1cc(O)c2c(=O)c3cc(N)c(N4CCN(c5nc6ccccc6o5)CC4)cc3n(C)c2c1 | > 50
26 | COc1cc(OC)c2c(=O)c3cc(N)c(N4CCN(c5ccccc5)CC4)cc3n(C)c2c1 | 34 (≈ 76.5 µM)
27 | Cc1cc(C)c2c(=O)c3cc(N)c(N4CCN(c5ccccn5)CC4)cc3n(C)c2c1C | > 50
28 | COc1cc(OC)c2c(=O)c3cc(N(C)C)c(N4CCN(c5ccccn5)CC4)cc3n(C)c2c1 | 3 (≈ 6.33 µM)
29 | CCn1c2cc(Cl)c(N)cc2c(=O)c2c(O)cc(O)cc21 | > 50
30 | COc1ccc(C(=O)c2ccc(N3CCN(c4ccccn4)CC3)c(N)c2)c(OC)c1 | 15 (≈ 35.8 µM)
31 | COc1cc(OCC(=O)O)c2c(=O)c3cc(N)c(N4CCN(c5ccccn5)CC4)cc3n(C)c2c1 | > 50
32 | CCn1c2cc(Cl)c(N)cc2c(=O)c2c(OC)cc(OC)cc21 | 14 (≈ 42.1 µM)
33 | CCn1c2cc(N3CCN(c4ccccn4)CC3)c(N)cc2c(=O)c2c(OC)cc(OC)cc21 | 11 (≈ 23.9 µM)
34 | Cn1c2cc(N3CCN(c4ccccc4)CC3)c(N)cc2c(=O)c2c(O)cc(O)cc21 | 16.2 (≈ 38.9 µM)
35 | COc1cc(O)c2c(=O)c3cc(N)c(Cl)cc3[nH]c2c1 | > 50
36 | CCOc1cc(OC)cc2c1c(=O)c1cc(N)c(N3CCN(c4ccccn4)CC3)cc1n2C | > 50

tested on: not listed separately; assay: Inhibition of ATPase activity of HCV […] expressed in Escherichia coli; parameters: species or system Hepacivirus hominis; settings: not given

Row | IC50 [mM] | SMILES
37 | > 1 | CCn1c2cc(Cl)c(N)cc2c(=O)c2c(O)cc(O)cc21
38 | > 1 | CCn1c2cc(Cl)c(N)cc2c(=O)c2c(OC)cc(OC)cc21
39 | > 1 | Cn1c2cc(N3CCN(c4ccccc4)CC3)c(N)cc2c(=O)c2c(O)cc(O)cc21
40 | > 1 | COc1cc(O)c2c(=O)c3cc(N)c(Cl)cc3[nH]c2c1

Further lines, the molecule ahead of its results:

Row | SMILES | IC50 [mM]
41 | COc1cc(O)c2c(=O)c3cc(N)c(N4CCN(c5nc6ccccc6o5)CC4)cc3n(C)c2c1 | > 1
42 | COc1cc(OC)c2c(=O)c3cc(N)c(N4CCN(c5ccccc5)CC4)cc3n(C)c2c1 | > 1
43 | Cc1cc(C)c2c(=O)c3cc(N)c(N4CCN(c5ccccn5)CC4)cc3n(C)c2c1C | > 1
44 | COc1cc(OC)c2c(=O)c3cc(N(C)C)c(N4CCN(c5ccccn5)CC4)cc3n(C)c2c1 | > 1
45 | COc1ccc(C(=O)c2ccc(N3CCN(c4ccccn4)CC3)c(N)c2)c(OC)c1 | > 1
46 | COc1cc(OCC(=O)O)c2c(=O)c3cc(N)c(N4CCN(c5ccccn5)CC4)cc3n(C)c2c1 | > 1
47 | CCn1c2cc(N3CCN(c4ccccn4)CC3)c(N)cc2c(=O)c2c(OC)cc(OC)cc21 | > 1
48 | CCOc1cc(OC)cc2c1c(=O)c1cc(N)c(N3CCN(c4ccccn4)CC3)cc1n2C | > 1
